According to patent publication US7959904B2, “Delivery of medicaments to the nail” (University of Mississippi, priority 2001, dated 2011):

Experiment: Permeability study through full thickness nail plates in modified Franz diffusion cells
Format: in vitro ADME, human
Details: for Total permeation of drug through nail plates: phosphate buffer pH 7.2 / 0.5% Brij 58 donor, after 48 hours
Description: Example 6 examines permeability of the medicament into the nail. For this Example, ketoconazole is utilized as a model drug to perform permeability studies. The drug is dissolved in two different media for testing which functioned as the donor solution. The first is an isotonic phosphate buffer solution (pH 7.2) with 0.5% Brij 58 as a solubilizer. The second is an 80:20 methanol/water solution buffered to pH 7.2. The receptor media is the same as the donor media without dissolved drug in both cases.
A system employing 9 modified glass Franz diffusion cells is used. Full thickness nail plates are sandwiched between two polypropylene adapters with an O-ring and were mounted on the individual cells with the dorsal nail plate facing the donor compartment (receptor volume 5.2 ml; donor surface area 0.5 cm^2). The receptor fluid is maintained at 37±0.5° C. and is continuously stirred with a magnetic bar. The donor solutions are applied to the dorsal nail surface following a one hour hydration period. Samples of the receptor phase are withdrawn at predetermined time intervals (for up to 48 hours) and immediately replaced with fresh […]. Analysis of the samples is corrected for previous drug removed. The receptor and donor compartments are sealed with a sheet of aluminum foil and wrapped with parafilm. The hermeticity of the system was continuously monitored. Drug content in the receptor media is determined using high performance liquid chromatography.

CC(=O)N1CCN(c2ccc(OCC3COC(Cn4ccnc4)(c4ccc(Cl)cc4Cl)O3)cc2)CC1 (stereo not drawn) [ketoconazole]
Greater total permeation, etched vs nonetched nail (80:20 methanol/water buffered to pH 7.2 donor): ~3 fold
Total permeation of drug through nail (80:20 methanol/water buffered to pH 7.2 donor, etched nail): 6,191±323.3 μg/cm^2
Total permeation of drug through nail (80:20 methanol/water buffered to pH 7.2 donor, nonetched nail): 2,497±237 μg/cm^2
Total permeation of drug through nail plates (etched nail plates): 1,873 (±155) μg/cm^2
Total permeation of drug through nail plates (unetched nail plates): 446 (±51) μg/cm^2
Difference in total permeation, etched vs unetched nail (phosphate buffer/Brij 58 donor, 48 hours): ~4 fold
